Assay results taken from publication PMC4186771 (Journal of neurochemistry, 2013).
Blank lines part the entries; values can stand above or below the compound they belong to.

What was measured:
[1] = biological target: α1β2γ2 Cys-less GABAAR [α1(C234A,C293A)β2(C288A)γ2(C244A,C303A)] (UniProt P18508+P47870+P62813, C260A/C282A/C312A/C319A/C341A); assay: GABA-induced currents, two-electrode voltage clamp in Xenopus laevis oocytes; format: cell-based, rat α1 and γ2s, human β2; conditions: for Modulation of the Cys-less receptor compared with WT: Cys-less versus wild-type α1β2γ2
Chain of α1β2γ2 Cys-less GABAAR [α1(C234A,C293A)β2(C288A)γ2(C244A,C303A)] (P62813 28-455 C260A/C319A): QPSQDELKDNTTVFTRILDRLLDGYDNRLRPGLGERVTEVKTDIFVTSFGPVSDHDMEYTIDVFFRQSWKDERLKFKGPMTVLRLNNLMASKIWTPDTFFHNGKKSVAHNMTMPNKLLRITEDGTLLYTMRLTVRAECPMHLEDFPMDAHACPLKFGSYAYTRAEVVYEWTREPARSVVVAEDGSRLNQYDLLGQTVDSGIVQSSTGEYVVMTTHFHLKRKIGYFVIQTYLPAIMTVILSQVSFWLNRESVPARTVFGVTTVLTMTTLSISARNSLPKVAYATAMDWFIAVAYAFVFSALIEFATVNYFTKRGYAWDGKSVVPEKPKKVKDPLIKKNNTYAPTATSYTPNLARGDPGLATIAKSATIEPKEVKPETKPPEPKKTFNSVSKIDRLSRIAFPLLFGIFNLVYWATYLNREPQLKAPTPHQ
Chain of α1β2γ2 Cys-less GABAAR [α1(C234A,C293A)β2(C288A)γ2(C244A,C303A)] (P47870 25-474 isoform P47870-1 C312A limits assumed): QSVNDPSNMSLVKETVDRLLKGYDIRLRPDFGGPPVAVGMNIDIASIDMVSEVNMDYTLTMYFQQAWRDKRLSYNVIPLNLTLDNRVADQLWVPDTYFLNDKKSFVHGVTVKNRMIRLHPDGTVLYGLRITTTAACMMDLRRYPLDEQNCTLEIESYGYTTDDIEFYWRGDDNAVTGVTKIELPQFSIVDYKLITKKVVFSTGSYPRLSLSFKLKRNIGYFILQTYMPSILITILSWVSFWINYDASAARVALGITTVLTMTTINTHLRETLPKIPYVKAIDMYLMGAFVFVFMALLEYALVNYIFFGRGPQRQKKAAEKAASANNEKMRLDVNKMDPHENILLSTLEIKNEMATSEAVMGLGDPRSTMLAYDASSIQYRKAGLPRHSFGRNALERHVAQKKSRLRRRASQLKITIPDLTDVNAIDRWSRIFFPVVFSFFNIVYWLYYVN
Chain of α1β2γ2 Cys-less GABAAR [α1(C234A,C293A)β2(C288A)γ2(C244A,C303A)] (P18508 39-466 C282A/C341A): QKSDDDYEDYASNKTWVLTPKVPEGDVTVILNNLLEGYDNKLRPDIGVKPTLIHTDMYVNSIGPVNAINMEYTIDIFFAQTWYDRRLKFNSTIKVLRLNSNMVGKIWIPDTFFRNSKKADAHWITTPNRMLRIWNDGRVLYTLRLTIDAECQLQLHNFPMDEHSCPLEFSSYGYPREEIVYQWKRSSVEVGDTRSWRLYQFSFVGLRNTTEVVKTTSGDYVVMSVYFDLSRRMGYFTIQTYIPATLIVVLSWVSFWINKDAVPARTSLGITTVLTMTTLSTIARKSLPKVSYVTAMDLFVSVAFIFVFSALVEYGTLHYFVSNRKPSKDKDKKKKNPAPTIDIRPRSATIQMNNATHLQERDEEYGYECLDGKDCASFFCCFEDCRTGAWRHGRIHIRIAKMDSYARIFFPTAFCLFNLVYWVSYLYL

[2] = biological target: α1(Q229C)β2(N265C)γ2 GABAAR (UniProt P18508+P47870+P62813, C260A/C282A/C312A/C319A/C341A/N289C/Q255C); assay: as above; format: cell-based, rat α1 and γ2s, human β2; conditions: change vs initial response, compared with Cys-less; EC50 GABA; DTT 2 mM 2 min
[3] = biological target: α1(Q229C)β2(M286C)γ2 GABAAR (UniProt P18508+P47870+P62813, C260A/C282A/C312A/C319A/C341A/M310C/Q255C); assay: as above; format: cell-based, rat α1 and γ2s, human β2; conditions: change vs initial response, compared with Cys-less; EC50 GABA; DTT 2 mM 2 min
[4] = biological target: α1(L232C)β2(M286C)γ2 GABAAR (UniProt P18508+P47870+P62813, C260A/C282A/C312A/C319A/C341A/L258C/M310C); assay: as above; format: cell-based, rat α1 and γ2s, human β2
[5] = biological target: α1(L232C)β2(F289C)γ2 GABAAR (UniProt P18508+P47870+P62813, C260A/C282A/C312A/C319A/C341A/F313C/L258C); assay: as above; format: cell-based, rat α1 and γ2s, human β2; conditions: change vs initial response, compared with Cys-less; 100 μM GABA; DTT 2 mM 2 min
[6] = biological target: α1β2(T225C,N265C)γ2 GABAAR (UniProt P18508+P47870+P62813, C260A/C282A/C312A/C319A/C341A/N289C/T249C); assay: as above; format: cell-based, rat α1 and γ2s, human β2; conditions: change vs initial response, compared with Cys-less; 1 mM GABA; DTT 2 mM 2 min
[7] = biological target: α1β2(T225C,L285C)γ2 GABAAR (UniProt P18508+P47870+P62813, C260A/C282A/C312A/C319A/C341A/L309C/T249C); assay: as above; format: cell-based, rat α1 and γ2s, human β2
Chain of α1β2(T225C,L285C)γ2 GABAAR (P62813 28-455 C260A/C319A): as the sequence (P62813 28-455 C260A/C319A) above
Chain of α1β2(T225C,L285C)γ2 GABAAR (P47870 25-474 isoform P47870-1 T249C/L309C/C312A limits assumed): as the sequence (P47870 25-474 isoform P47870-1 C312A limits assumed) above, with T225C, L285C counted along it
Chain of α1β2(T225C,L285C)γ2 GABAAR (P18508 39-466 C282A/C341A): as the sequence (P18508 39-466 C282A/C341A) above

[8] = biological target: α1β2(T225C,C288)γ2 GABAAR (UniProt P18508+P47870+P62813, C260A/C282A/C319A/C341A/T249C); assay: as above; format: cell-based, rat α1 and γ2s, human β2; conditions: change vs initial response, compared with Cys-less; EC50 GABA; DTT 2 mM 2 min
[9] = biological target: α1β2(N265C,L285C)γ2 GABAAR (UniProt P18508+P47870+P62813, C260A/C282A/C312A/C319A/C341A/L309C/N289C); assay: as above; format: cell-based, rat α1 and γ2s, human β2
[10] = biological target: α1β2(N265C,M286C)γ2 GABAAR (UniProt P18508+P47870+P62813, C260A/C282A/C312A/C319A/C341A/M310C/N289C); assay: as above; format: cell-based, rat α1 and γ2s, human β2; conditions: change vs initial response, compared with Cys-less; EC50 GABA; DTT 2 mM 2 min
[11] = biological target: α1β2(N265C,C288)γ2 GABAAR (UniProt P18508+P47870+P62813, C260A/C282A/C319A/C341A/N289C); assay: as above; format: cell-based, rat α1 and γ2s, human β2
[12] = biological target: α1β2(N265C,F289C)γ2 GABAAR (UniProt P18508+P47870+P62813, C260A/C282A/C312A/C319A/C341A/F313C/N289C); assay: as above; format: cell-based, rat α1 and γ2s, human β2; conditions: change vs initial response, compared with Cys-less; EC50 GABA; DTT 2 mM 2 min
[13] = biological target: α1(L232C)β2γ2 GABAAR (UniProt P18508+P47870+P62813, C260A/C282A/C312A/C319A/C341A/L258C); assay: as above; format: cell-based, rat α1 and γ2s, human β2
[14] = biological target: α1β2(T225C)γ2 GABAAR (UniProt P18508+P47870+P62813, C260A/C282A/C312A/C319A/C341A/T249C); assay: as above; format: cell-based, rat α1 and γ2s, human β2; conditions: EC10 GABA; BMTS 0.5 mM co-applied with maximal GABA
[15] = biological target: α1β2(M286C)γ2 GABAAR (UniProt P18508+P47870+P62813, C260A/C282A/C312A/C319A/C341A/M310C); assay: as above; format: cell-based, rat α1 and γ2s, human β2
[16] = biological target: β2C288-containing GABAARs (UniProt P18508+P47870+P62813, C260A/C282A/C319A/C341A); assay: as above; format: cell-based, rat α1 and γ2s, human β2; conditions: EC10 GABA; BMTS 0.5 mM co-applied with maximal GABA
[17] = biological target: α1(Q229C)β2γ2 GABAAR (UniProt P18508+P47870+P62813, C260A/C282A/C312A/C319A/C341A/Q255C); assay: as above; format: cell-based, rat α1 and γ2s, human β2; conditions: Butanol (33 mM) modulation of EC10 GABA; after versus before BMTS labeling
[18] = biological target: β2(N265C)-containing GABAARs (UniProt P18508+P47870+P62813, C260A/C282A/C312A/C319A/C341A/N289C); assay: as above; format: cell-based, rat α1 and γ2s, human β2
[19] = biological target: β2(L285C)-containing GABAARs (UniProt P18508+P47870+P62813, C260A/C282A/C312A/C319A/C341A/L309C); assay: as above; format: cell-based, rat α1 and γ2s, human β2
[20] = biological target: α1β2(F289C)γ2 GABAAR (UniProt P18508+P47870+P62813, C260A/C282A/C312A/C319A/C341A/F313C); assay: as above; format: cell-based, rat α1 and γ2s, human β2
Chain of α1β2(F289C)γ2 GABAAR (P62813 28-455 C260A/C319A): as the sequence (P62813 28-455 C260A/C319A) above
Chain of α1β2(F289C)γ2 GABAAR (P47870 25-474 isoform P47870-1 C312A/F313C limits assumed): as the sequence (P47870 25-474 isoform P47870-1 C312A limits assumed) above, with F289C counted along it
Chain of α1β2(F289C)γ2 GABAAR (P18508 39-466 C282A/C341A): as the sequence (P18508 39-466 C282A/C341A) above

[21] = system: bovine GABAAR; conditions: ref Li et al. 2010; cited from earlier work
[22] = system: wild-type GLIC; conditions: intra-subunit binding; ref Weng et al. 2010; cited from earlier work
[23] = system: mutated alcohol-sensitive GLIC; conditions: inter-subunit binding; ref Howard et al. 2011; cited from earlier work
[24] = system: recombinant α1β3γ2 GABAARs; conditions: in the presence of GABA; ref Chiara et al. 2013; cited from earlier work
[25] = change vs initial response, compared with Cys-less, EC50 GABA, DTT 2 mM 2 min
[26] = EC10 GABA, BMTS 0.5 mM co-applied with maximal GABA
[27] = Butanol (33 mM) modulation of EC10 GABA, after versus before BMTS labeling
[28] = Butanol modulation of EC10 GABA, 11 and 33 mM, after Cu^++:Phen versus after DTT
[29] = single cysteine mutant, no treatment
[30] = Isoflurane 0.3 and 0.9 mM on EC10 GABA, after Cu^++:Phen versus after DTT
[31] = Isoflurane 0.3 mM on EC10 GABA, after versus before BMTS labeling

GABA responses After DTT ([1]; change vs initial response, EC50 GABA, DTT 2 mM 2 min): No change
GABA responses After DTT [2]: Decrease
GABA responses After DTT [3]: Increase
GABA responses After DTT [4, 25]: No change
GABA responses After DTT [5]: Increase
GABA responses After DTT [6]: Increase
GABA responses After DTT [7, 25]: No change
GABA responses After DTT [8]: Increase
GABA responses After DTT [9, 25]: No change
GABA responses After DTT [10]: Decrease
GABA responses After DTT [11, 25]: No change
GABA responses After DTT [12]: Increase
Structure (SMILES): O[C@@H](CS)[C@@H](O)CS (racemic) [DTT, dithiothreitol]

Structure (SMILES): CCCCSS(C)(=O)=O [BMTS, butyl methanethiosulfonate]
GABA responses after BMTS + GABA [1, 26]: No change
GABA responses after BMTS + GABA [13, 26]: Increase
GABA responses after BMTS + GABA [14]: No net change
GABA responses after BMTS + GABA [15, 26]: Increase
GABA responses after BMTS + GABA [16]: No change

Structure (SMILES): CCCCO [Butanol, butanol]
Butanol effect after BMTS labeling [1, 27]: No change/ Small decrease
Butanol effect After crosslink [1, 28]: No change
Butanol effect After crosslink [4, 28]: No change
Butanol effect After crosslink [7, 28]: Decrease
Change in the butanol potentiation after oxidation ([7]; Butanol on EC10 GABA, after Cu^++:Phen versus after DTT): −51%
Butanol effect After crosslink [9, 28]: Decrease
Butanol effect After crosslink [11, 28]: Decrease
Butanol effect after BMTS labeling [17]: No change
Butanol effect after BMTS labeling [13, 27]: No change
Butanol potentiation of GABA responses compared with the Cys-less receptor [13, 29]: decreased
Butanol effect after BMTS labeling [18, 27]: Decrease
Butanol potentiation of GABA responses compared with the Cys-less receptor [18, 29]: decreased
Butanol effect after BMTS labeling [19, 27]: No change
Butanol potentiation of GABA responses compared with the Cys-less receptor [19, 29]: decreased
Butanol effect after BMTS labeling [15, 27]: Decrease
Butanol potentiation of GABA responses compared with the Cys-less receptor [15, 29]: decreased
Butanol potentiation of GABA responses compared with the Cys-less receptor [20, 29]: decreased

Structure (SMILES): FC(F)OC(Cl)C(F)(F)F (stereo not drawn) [Isoflurane]
Isoflurane effect after oxidation (crosslink) [4, 30]: no changes
Isoflurane potentiation after oxidation (crosslink) [7, 30]: decrease
Isoflurane potentiation after BMTS labeling [18, 31]: decreased
Isoflurane potentiation after BMTS labeling [15, 31]: decreased
Isoflurane effect after BMTS labeling ([20]; EC10 GABA, after versus before BMTS treatment, data not shown): switched from very small, and even inhibitory effects, to potentiation
Isoflurane potentiation of GABA responses compared with the Cys-less receptor [20, 29]: decreased
Block of etomidate analog photolabeling [21]: isoflurane could

Structure (SMILES): FC(F)OC(F)C(F)(F)F (stereo not drawn) [desflurane]
Effect on channel function [22]: inhibits

Structure (SMILES): CCO [ethanol]
Modulation of the Cys-less receptor compared with WT [1]: essentially the same as WT
Effect on channel function [23]: potentiates

Structure (SMILES): CCCCCCCCO [octanol]
Block of etomidate analog photolabeling [21]: neither octanol nor ethanol could block
Block of photolabeling [24]: blocked

Structure (SMILES): CC(C)c1cccc(C(C)C)c1O [propofol]
Effect on channel function [22]: inhibits

Structure (SMILES): [Zn] [zinc]
Modulation of the Cys-less receptor compared with WT [1]: essentially the same as WT
